Test results taken from US7109193B2, “Tricyclic diazepines tocolytic oxytocin receptor antagonists” (Wyeth, priority 2001, dated 2006).

Legend:
[1] = target: T1, human vasopressin V2 receptor subtype (Homo sapiens, UniProt P30518); experiment: Vasopressin binding in Chinese Hamster Ovary cell membranes expressing human vasopressin V2 subtype receptors; conditions: 100 nM, CHO cell membranes, [3H]arginine vasopressin, values without parentheses
T1 construct: host or cells: CHO cells (pZeoSV vector)
T1 sequence (P30518 whole entry): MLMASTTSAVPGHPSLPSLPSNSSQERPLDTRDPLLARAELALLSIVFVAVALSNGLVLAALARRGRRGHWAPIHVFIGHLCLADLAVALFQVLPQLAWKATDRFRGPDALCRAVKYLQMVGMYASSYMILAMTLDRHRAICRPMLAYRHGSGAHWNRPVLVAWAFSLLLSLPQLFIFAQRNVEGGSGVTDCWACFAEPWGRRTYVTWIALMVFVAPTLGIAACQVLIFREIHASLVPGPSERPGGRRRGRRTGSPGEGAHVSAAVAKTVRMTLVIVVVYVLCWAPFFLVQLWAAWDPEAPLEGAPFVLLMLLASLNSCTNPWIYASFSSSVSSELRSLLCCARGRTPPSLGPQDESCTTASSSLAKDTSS
Summary of the method: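 Radioligand displacement on membranes from CHO cells stably expressing human V2 receptor, 25 to 50 μg protein/well, in 50 mM Tris-HCl pH 7.4 with MgCl2, BSA and protease inhibitors. [^3H]arginine vasopressin (8 nM working solution) incubated 60 min at room temperature; bound label measured by filtration and scintillation counting.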

SMILES	melting point	inhibition at 0.1 µM [1] [%]
COc1cc(C(=O)N2Cc3ccc(C(=O)NCCN4CCCCC4)n3Cc3ccccc32)ccc1-c1cccc2ccccc12 [Example 157, 10-[3-Methoxy-4-(1-naphthyl)benzoyl]-N-[2-(1-piperidinyl)ethyl]-10,11-dihydro-5H-pyrrolo[2,1-c][1,4]benzodiazepine-3-carboxamide]		23
COc1cccc(-c2ccc(C(=O)N3Cc4ccc(C(=O)N5CCN(CCN6CCOCC6)CC5)n4Cc4ccccc43)cc2C)c1 [Example 208, {10-[(3′-Methoxy-2-methyl[1,1′-biphenyl]-4-yl)carbonyl]-10,11-dihydro-5H-pyrrolo[2,1-c][1,4]benzodiazepin-3-yl}{4-[2-(4-morpholinyl)ethyl]-1-piperazinyl}methanone]		12
COc1cc(C(=O)N2Cc3ccc(C(=O)N(C)C4CCN(C)CC4)n3Cc3ccccc32)ccc1-c1ccccc1C [Example 179, 10-[(2-Methoxy-2′-methyl[1,1′-biphenyl]-4-yl)carbonyl]-N-methyl-N-(1-methyl-4-piperidinyl)-10,11-dihydro-5H-pyrrolo[2,1-c][1,4]benzodiazepine-3-carboxamide]		23
COc1cccc(-c2ccc(C(=O)N3Cc4ccc(C(=O)N(C)C5CCN(C)CC5)n4Cc4ccccc43)cc2C)c1 [Example 176, 10-[(3′-Methoxy-2-methyl[1,1′-biphenyl]-4-yl)carbonyl]-N-methyl-N-(1-methyl-4-piperidinyl)-10,11-dihydro-5H-pyrrolo[2,1-c][1,4]benzodiazepine-3-carboxamide]		18
COc1cc(C(=O)N2Cc3ccc(C(=O)N4CCN(C(C)C)CC4)n3Cc3ccccc32)ccc1-c1cccc2ccccc12 [Example 236, (4-Isopropyl-1-piperazinyl){10-[3-methoxy-4-(1-naphthyl)benzoyl]-10,11-dihydro-5H -pyrrolo[2,1-c][1,4]benzodiazepin-3-yl}methanone]		5
COc1ccccc1-c1ccc(C(=O)N2Cc3ccc(C(=O)N4CCN(C(C)C)CC4)n3Cc3ccccc32)cc1OC [Example 241, {10-[(2,2′-Dimethoxy[1,1-biphenyl]4-yl)carbonyl]-10,11-dihydro-5H-pyrrolo[2,1-c][1,4]benzodiazepin-3-yl}(4-isopropyl-1-piperazinyl)methanone]		-17
COc1cc(C(=O)N2Cc3ccc(C(=O)N4CCN(C(C)C)CC4)n3Cc3ccccc32)ccc1-c1ccccc1C [Example 237, (4-isopropyl-1-piperazinyl){10-[(2-methoxy-2′-methyl[1,1′-biphenyl]-4-yl)carbonyl]-10,11-dihydro-5H-pyrrolo[2,1-c][1,4]benzodiazepin-3-yl}methanone]		-3
COc1cc(C(=O)N2Cc3ccc(C(=O)NCCC4CCCN4C)n3Cc3ccccc32)ccc1-c1cccc2ccccc12 (centres unmarked) [Example 170, 10-[3-Methoxy-4-(1-naphthyl)benzoyl]-N-[2-(1-methyl-2-pyrrolidinyl)ethyl]-10,11-dihydro-5H-pyrrolo[2,1-c][1,4]benzodiazepine-3-carboxamide]		27
C=CCN1CCN(C(=O)c2ccc3n2Cc2ccccc2N(C(=O)c2ccc(-c4ccccc4OC)c(OC)c2)C3)CC1 [Example 227, (4-Allyl-1-piperazinyl){10-[(2,2′-dimethoxy[1,1′-biphenyl]-4-yl)carbonyl]-10,11-dihydro-5H -pyrrolo[2,1-c][1,4]benzodiazepin-3-yl}methanone]		2
COc1ccccc1-c1ccc(C(=O)N2Cc3ccc(C(=O)N(C)C4CCN(C)C4)n3Cc3ccccc32)cc1OC (centres unmarked) [Example 193, 10-[(2,2′-Dimethoxy[1,1′-biphenyl]-4-yl)carbonyl]-N-methyl-N-(1-methyl-3-pyrrolidinyl)-10,11-dihydro-5H-pyrrolo[2,1-c][1,4]benzodiazepine-3-carboxamide]		16

Continued, values first:

melting point	inhibition at 0.1 µM [1] [%]	SMILES
174 to 184 °C	42	COc1ccccc1-c1ccc(C(=O)N2Cc3ccc(C(=O)O)n3Cc3ccccc32)cc1C [Example 9, 10-[(2′-Methoxy-2-methyl-[1,1′-biphenyl]-4-yl)carbonyl]-10,11-dihydro-5H-pyrrolo[2,1-c][1,4]benzodiazepine-3-carboxylic acid]
220 to 222 °C (dec.)	27	COc1cc(-c2ccccc2C(F)(F)F)c(Cl)cc1C(=O)N1Cc2ccc(C(=O)O)n2Cc2ccccc21 [Example 15, 10-{[6-Chloro-3-methoxy-2′-trifluoromethyl-[1,1′-biphenyl]-4-yl]carbonyl}-10,11-dihydro-5H-pyrrolo[2,1-c][1,4]benzodiazepine-3-carboxylic acid]
	27	COc1ccccc1-c1ccc(C(=O)N2Cc3ccc(C(=O)N(C)C4CCN(C)C4)n3Cc3ccccc32)cc1C (centres unmarked) [Example 185, 10-[(2′-Methoxy-2-methyl[1,1′-biphenyl]-4-yl)carbonyl]-N-methyl-N-(1-methyl-3-pyrrolidinyl)-10,11-dihydro-5H-pyrrolo[2,1-c][1,4]benzodiazepine-3-carboxamide]
	9	Cc1cc(C(=O)N2Cc3ccc(C(=O)N4CCN(C(C)C)CC4)n3Cc3ccccc32)ccc1-c1ccccc1C(F)(F)F [Example 240, (4-Isopropyl-1-piperazinyl)(10-{[2-methyl-2′-(trifluoromethyl)[1,1′-biphenyl]-4-yl]carbonyl}-10,11-dihydro-5H-pyrrolo[2,1-c][1,4]benzodiazepin-3-yl)methanone]
	9	Cc1cc(C(=O)N2Cc3ccc(C(=O)N(C)C4CCN(C)CC4)n3Cc3ccccc32)ccc1-c1ccccc1C(F)(F)F [Example 184, N-Methyl-N-(1-methyl-4-piperidinyl)-10-{[2-methyl-2′-(trifluoromethyl)[1,1′-biphenyl]-4-yl]carbonyl}-10,11-dihydro-5H-pyrrolo[2,1-c][1,4]benzodiazepine-3-carboxamide]
	7	Cc1cc(C(=O)N2Cc3ccc(C(=O)NCCC4CCCN4C)n3Cc3ccccc32)ccc1-c1ccccc1C(F)(F)F (centres unmarked) [Example 174, N-[2-(1-Methyl-2-pyrrolidinyl)ethyl]-10-{[2-methyl-2′-(trifluoromethyl)[1,1′-biphenyl]-4-yl]carbonyl}-10,11-dihydro-5H-pyrrolo[2,1-c][1,4]benzodiazepine-3-carboxamide]
187 to 188 °C	-1	COc1cc2c(cc1OC)N(C(=O)c1ccc(-c3ccccc3C(F)(F)F)c(C)c1)Cc1cccn1C2 [Example 12, 7,8-Dimethoxy-[10,11-dihydro-5H-pyrrolo[2,1-c][1,4]benzodiazepin-10-yl][2-methyl-2′-(trifluoromethyl)[1,1′-biphenyl]-4-yl]methanone]
